# Measured values published in ChEMBL document CHEMBL1201862, “PubChem BioAssay data set” (2004).
#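 1) Cells in 96-well plates. 2) Compound, 48 h, 5 concentrations. 3) Linear interpolation between surrounding doses. 4) Unreached endpoint = highest concentration. At the GI50, growth is halved.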 The source made the active and inactive calls. No stated cut-off is given here; in the data, active = GI50 up to about 1.1 µM and inactive = higher.
# Legend:
# Experiment in all cases: inhibition of tumour cell growth, NCI panel, 48 h
# [1] = test system: HCT-15
# [2] = test system: BT-549
# [3] = test system: OVCAR-5
# [4] = test system: UACC-257
# [5] = test system: ACHN
# [6] = test system: K562
# [7] = test system: Hs-578T
# [8] = test system: CAKI-1
# [9] = test system: A549
# [10] = test system: LOX IMVI
# [11] = test system: HOP-92
# [12] = test system: HCT-116
# [13] = test system: NCI/ADR-RES
# [14] = test system: MOLT-4
# [15] = test system: U-251
# [16] = test system: UO-31
# [17] = test system: PC-3
# [18] = test system: MDA-MB-231
# [19] = test system: SK-MEL-2
# [20] = test system: RPMI-8226
Compound,GI50 [1],GI50 [2],GI50 [3],GI50 [4],GI50 [5],GI50 [6],GI50 [7],GI50 [8],GI50 [9],GI50 [10],GI50 [11],GI50 [12],GI50 [13],GI50 [14],GI50 [15],GI50 [16],GI50 [17],GI50 [18],GI50 [19],GI50 [20]
O=C(Cn1nc(Br)c(Br)c1Br)c1ccccc1,31.6 µM,20.2 µM (inactive),40.7 µM (inactive),20 µM (inactive),27.3 µM (inactive),10.8 µM (inactive),44.1 µM (inactive),26.7 µM (inactive),33.7 µM (inactive),16.4 µM (inactive),20 µM (inactive),18.1 µM (inactive),30.1 µM (inactive),0.238 µM (active),34 µM (inactive),18.2 µM (inactive),32.7 µM (inactive),18.9 µM (inactive),20.7 µM (inactive),–
O=c1[nH]nc(Cc2ccccc2)n1/N=C/c1ccncc1,> 100 µM,68.9 µM (inactive),> 100 µM (inactive),> 100 µM (inactive),> 100 µM (inactive),> 100 µM (inactive),82.2 µM (inactive),42.2 µM (inactive),> 100 µM (inactive),> 100 µM (inactive),> 100 µM (inactive),> 100 µM (inactive),> 100 µM (inactive),> 100 µM (inactive),> 100 µM (inactive),> 100 µM (inactive),> 100 µM (inactive),> 100 µM (inactive),–,> 100 µM (inactive)
Cc1ccc(S(=O)(=O)N[C@@H](Cc2ccccc2)C(=O)CCl)cc1 [TPCK],16 µM,11.7 µM (inactive),16.6 µM (inactive),12.3 µM (inactive),16.5 µM (inactive),9.75 µM (inactive),1.82 µM (inactive),–,15.7 µM (inactive),7.08 µM (inactive),13.6 µM (inactive),11.6 µM (inactive),19.9 µM (inactive),–,16.2 µM (inactive),14.1 µM (inactive),15.4 µM (inactive),14.2 µM (inactive),12.9 µM (inactive),–
C1=C(c2ccccc2)SC=C(c2ccccc2)S1,26.2 µM,17.9 µM (inactive),44.4 µM (inactive),57.7 µM (inactive),60.5 µM (inactive),21 µM (inactive),44 µM (inactive),60.4 µM (inactive),32.1 µM (inactive),36.9 µM (inactive),17.1 µM (inactive),44.5 µM (inactive),19.9 µM (inactive),25.3 µM (inactive),38.4 µM (inactive),60.5 µM (inactive),> 100 µM (inactive),32.2 µM (inactive),–,33.3 µM (inactive)
COC(=O)C12CCC(C(=O)OC)(Cc3c(c4ccccc4n3S(=O)(=O)c3ccccc3)C1)C2=O (configuration not stated),> 100 µM,> 100 µM (inactive),> 32.2 µM (inactive),> 64.1 µM (inactive),> 64.1 µM (inactive),62.1 µM (inactive),> 46.6 µM (inactive),> 62.4 µM (inactive),> 46 µM (inactive),> 59.3 µM (inactive),1 µM (active),–,16.7 µM (inactive),–,> 100 µM (inactive),> 100 µM (inactive),> 63.5 µM (inactive),> 100 µM (inactive),> 100 µM (inactive),> 100 µM (inactive)
O=C1N[C@@H]2O[C@H](CNC(=O)c3cc(Br)c[nH]3)C[C@]2(O)N1.O=C1N[C@H]2O[C@H](CNC(=O)c3cc(Br)c[nH]3)C[C@@]2(O)N1,> 100 µM,> 100 µM (inactive),> 100 µM (inactive),> 100 µM (inactive),> 100 µM (inactive),> 100 µM (inactive),> 100 µM (inactive),> 100 µM (inactive),> 100 µM (inactive),–,> 100 µM (inactive),> 100 µM (inactive),> 100 µM (inactive),> 100 µM (inactive),> 100 µM (inactive),> 100 µM (inactive),> 100 µM (inactive),> 100 µM (inactive),> 100 µM (inactive),> 100 µM (inactive)
O=[N+]([O-])/C(C(Cl)=C(Cl)Cl)=C(\Nc1cccc2ccccc12)n1nnc2ccccc21,58.2 µM,21.7 µM (inactive),42 µM (inactive),> 100 µM (inactive),> 100 µM (inactive),–,9.31 µM (inactive),> 100 µM (inactive),77.3 µM (inactive),35.4 µM (inactive),–,34.1 µM (inactive),78.3 µM (inactive),–,33 µM (inactive),98.4 µM (inactive),47.1 µM (inactive),47.1 µM (inactive),38.4 µM (inactive),23.3 µM (inactive)
CC(NNC(=O)c1ccncc1)c1ccc(F)cc1 (configuration not stated),> 100 µM,> 100 µM (inactive),> 100 µM (inactive),> 100 µM (inactive),> 100 µM (inactive),> 100 µM (inactive),> 100 µM (inactive),> 100 µM (inactive),> 100 µM (inactive),> 100 µM (inactive),> 100 µM (inactive),> 100 µM (inactive),> 100 µM (inactive),6.65 µM (inactive),> 100 µM (inactive),> 100 µM (inactive),> 100 µM (inactive),> 100 µM (inactive),> 100 µM (inactive),–
O=C(O)c1cncc(C(=O)O)c1,> 100 µM,> 100 µM (inactive),> 100 µM (inactive),> 100 µM (inactive),> 100 µM (inactive),> 100 µM (inactive),> 100 µM (inactive),> 100 µM (inactive),> 100 µM (inactive),> 100 µM (inactive),–,> 100 µM (inactive),> 100 µM (inactive),> 100 µM (inactive),> 100 µM (inactive),> 100 µM (inactive),> 100 µM (inactive),> 100 µM (inactive),> 100 µM (inactive),> 100 µM (inactive)
CC(O)C1OC(O)C2OC(C)(C)OC12 (configuration not stated),> 100 µM,> 100 µM (inactive),> 100 µM (inactive),> 100 µM (inactive),> 100 µM (inactive),> 100 µM (inactive),> 100 µM (inactive),> 100 µM (inactive),> 100 µM (inactive),> 100 µM (inactive),–,> 100 µM (inactive),> 100 µM (inactive),> 100 µM (inactive),> 100 µM (inactive),> 100 µM (inactive),> 100 µM (inactive),> 100 µM (inactive),> 100 µM (inactive),> 100 µM (inactive)
CCCCc1c2c(nc3c1CCC/C3=C\c1ccccc1)C(=O)C(CN(C)C)CC2 (configuration not stated),8.97 µM,4.32 µM (inactive),18.2 µM (inactive),17 µM (inactive),15.9 µM (inactive),6.89 µM (inactive),17.9 µM (inactive),–,19.9 µM (inactive),16.2 µM (inactive),16.6 µM (inactive),16 µM (inactive),29.3 µM (inactive),2.86 µM (inactive),16.6 µM (inactive),18.9 µM (inactive),14.1 µM (inactive),11.1 µM (inactive),20.2 µM (inactive),4.17 µM (inactive)
CC[C@@]1(C[C@H]2C[C@@]3(C(=O)OC)c4[nH]c5ccccc5c4CCN3C2=O)COC2(CCCCC2)O1,33.3 µM,47.9 µM (inactive),55.8 µM (inactive),20 µM (inactive),30.9 µM (inactive),23.6 µM (inactive),18.9 µM (inactive),36.2 µM (inactive),24.5 µM (inactive),32.8 µM (inactive),–,30 µM (inactive),31.8 µM (inactive),16.6 µM (inactive),–,18.1 µM (inactive),15 µM (inactive),> 100 µM (inactive),32.2 µM (inactive),–
CCCCC1Cc2cc(OC)ccc2-c2nc3cc(OC)ccc3n21.CCCCC1Cc2cc(OC)ccc2-c2nc3ccc(OC)cc3n21 (configuration not stated),3.37 µM,18.8 µM (inactive),16.9 µM (inactive),14.4 µM (inactive),15.2 µM (inactive),10.5 µM (inactive),12.7 µM (inactive),15.6 µM (inactive),14 µM (inactive),16.4 µM (inactive),2.06 µM (inactive),10.9 µM (inactive),13.2 µM (inactive),10.2 µM (inactive),15 µM (inactive),12.3 µM (inactive),11.2 µM (inactive),13.1 µM (inactive),–,6.81 µM (inactive)
C(=C\N1CCCCC1)/c1nnnn1-c1ccccc1,23.6 µM,33 µM (inactive),42.1 µM (inactive),56.2 µM (inactive),37.9 µM (inactive),30.7 µM (inactive),17 µM (inactive),12.4 µM (inactive),> 100 µM (inactive),17.6 µM (inactive),66.1 µM (inactive),25.4 µM (inactive),20.5 µM (inactive),17.4 µM (inactive),21.1 µM (inactive),30 µM (inactive),27.7 µM (inactive),20.8 µM (inactive),–,21.1 µM (inactive)
O=C(O)CC(NC(=O)CP(=O)(O)O)C(=O)O (configuration not stated),146 µM,3210 µM (inactive),6120 µM (inactive),–,711 µM (inactive),94.8 µM (inactive),3640 µM (inactive),–,47.4 µM (inactive),52.5 µM (inactive),424 µM (inactive),21.5 µM (inactive),1020 µM (inactive),238 µM (inactive),71.9 µM (inactive),690 µM (inactive),1640 µM (inactive),1360 µM (inactive),2470 µM (inactive),244 µM (inactive)
